Bounds are passed on as bounds.

The compound `O=C(c1cccc(O)c1)C(O)c1cccc(O)c1` (configuration not stated) yielded a melting point of 159 to 162 °C.

In turn, `COc1ccc2c(c1)CC(=O)N2Nc1ccncc1` showed a melting point of 169 to 171 °C.

As to `Cc1n[nH]c(=O)c(-c2c(F)cc(F)cc2F)c1Cc1ccc(Cl)cc1`, the melting point was in the range of 212 to 215 °C.

In turn, `CCOC(=O)c1cnc(O)nc1Cc1ccccc1` showed a melting point of 57 to 61 °C.

`COc1ccc(C(=O)c2ccccc2)cc1COc1ccc(Cl)cc1` registered a melting point of 103 °C.

`FC(F)(F)c1ccccc1N=C1CCc2cc3c(nc21)C(=Nc1ccccc1C(F)(F)F)CC3`: the melting point was more than 350 °C.

`O=C(NC[C@H]1CN(c2ccc3c(c2)CCCc2cnoc2-3)C(=O)O1)C(F)F` showed a melting point of 145 to 180 °C.

`C=C1CS(=O)C2C(NC(=O)COc3ccccc3)C(=O)N2C1C(=O)OCc1ccc([N+](=O)[O-])cc1` (configuration not stated): the melting point lay in the range of 200 to 201 °C.

On to `N#Cc1ccccc1-c1ccc(C(F)(F)F)c(Cl)c1`, for which the melting point was 138 to 140 °C.

On to `CS(=O)(=O)OCCc1ccc(NC(=O)OCc2ccccc2)cc1CCOS(C)(=O)=O`, for which the melting point lay in the range of 58 to 60 °C.

Compound `CC(C)(C)OC(=O)n1nc(-c2cc3ccc(OCCCN4CCCC(O)C4)cc3n2C(=O)OC(C)(C)C)c2sc(-c3ccccc3)cc21` (configuration not stated) yielded a melting point of 213 to 216 °C.

`CC(C)n1c(=O)n(C(=O)NCC2CCN(CC3(C(=O)O)CCCC3)CC2)c2ccccc21` gave a melting point of 165 °C.

Turning to `Clc1nccnc1SN=Cc1ccccc1`, the melting point fell in the range of 93 to 94 °C.

Regarding `CCOC(=O)CN(CP(=O)(ONN1CCOCC1)ONN1CCOCC1)C(=O)C(F)(F)F`, the melting point lay in the range of 69 to 74 °C.

`Cc1ccc(-c2cncnc2C#N)cc1` showed a melting point of 107 to 109 °C.

`CCC12CCC3=C(CCc4cc(O)ccc43)C1CCC2=O` (configuration not stated) gave a melting point of 235 to 239 °C.

`COc1cc2c(cc1OC)[C@@H](c1ccc([N+](=O)[O-])cc1)NN(C1=NCCS1)[C@@H](C)C2`: the melting point was 206 to 212 °C.

`CC(C)(Cc1c(Cc2ccccc2)c2cc(OCc3ccc4ccccc4n3)ccc2n1Cc1ccc(Cl)cc1)C(=O)O` gave a melting point of 178 °C.

`COc1ccc2c(c1)c(/C=C/C(=O)c1ccncc1)cn2C` displayed a melting point of 178 to 182 °C.

In turn, `CC(C)c1cc(CCCOc2ncccc2CC(=O)O)n(Cc2ccc(C(F)(F)F)cc2Cl)n1` returned a melting point of 114 to 115 °C.

Regarding `C[C@@H](CO)Cn1c(C(=O)NCc2cc(C(F)(F)F)cc(C(F)(F)F)c2)c(-c2ccccc2)c2cccnc2c1=O`, the melting point lay in the range of 101 to 103 °C.

In turn, `CCOC(=O)C=Cc1cc2c(cn1)[nH]c1ccccc12` had a melting point of 132 to 134 °C.

On to `Cc1cccc(-c2nc(N)sc2-c2ccc3ncccc3n2)n1`, for which the melting point turned out to be 188 °C.

The compound `COc1ccc(C2OC(O[Si](C)(C)C)(C(F)(F)F)C(C)(C)N2C(=O)COc2ccccc2)cc1` (configuration not stated) returned a melting point of 89 to 92 °C.

For the compound `CS(=O)c1ccc(C(=O)Cc2ccccc2)cc1` (configuration not stated), the melting point worked out at 104 °C.

`COc1ccc(-c2nc(C(=O)NCCc3ccccn3)sc2-c2ccc(OC)cc2)cc1` had a melting point of 130 to 132 °C.

Take `O=C(NCc1ccc(Cl)cc1)c1cnc2c(F)cc(/C=C\CO)cc2c1O`: the melting point was 234 to 235 °C.

The compound `Cc1nnc2n1-c1sc(CC(=O)N3CCOCC3)cc1C(c1ccccc1Cl)=NC2C` (configuration not stated) returned a melting point of 126 to 129 °C.

Compound `O=C(CCC1CCN(Cc2ccccc2)CC1)c1cc2c3c(c1)CCN3C(=O)CC2` returned a melting point of 103 to 104 °C.

`C[C@H](NC(=O)CCC(=O)NO)C(=O)N1CCC[C@H]1C(=O)O`: the melting point was 195 to 196 °C.

Compound `C#CCN=C(NC#N)SC` registered a melting point of 160 to 164 °C.

Consider `NNC(=O)c1cnc2n(c1=O)CCC2`, for which the melting point lay in the range of 180 to 181 °C.

For the compound `CN1CC(CO)C=C2c3cccc4[nH]c(Cl)c(c34)CC21` (configuration not stated), the melting point came out at 207 °C.

Compound `COC(=O)c1ccc(C)c(-n2c(C)cc(OCc3ccccc3CNC(=O)Nc3cc(C(C)(C)C)nn3-c3ccc(O)c(Cl)c3)c(Cl)c2=O)c1` registered a melting point of 185 to 186 °C.

With `Cc1ccc(S(=O)(=O)N2CCC(C#N)(c3ccc(Cl)cc3Cl)CC2)cc1`, the melting point turned out to be 145 °C.

In turn, `CC1CN(Cc2n[nH]c3ccccc23)CCN1c1ccccc1` (single isomer, unassigned; (+)) displayed a melting point of 164 to 165 °C.

Turning to `Cc1c(NC(=O)c2cc3c(s2)CCCC3)cccc1-c1cn(C)c(=O)c(Nc2ccc(C3C(=O)N(C)CCN3C)cc2)n1` (configuration not stated), the melting point was in the range of 155 to 156 °C.

Regarding `CCCc1c(C(=O)OC)[nH]c2c(C)ccc(Cl)c12`, the melting point was 109 to 110 °C.

As to `C[C@@H](CN(Cc1ccccc1)Cc1ccccc1)OC(=O)N1C(C)(C)COC1(C)C`, the melting point worked out at 117 °C.

Take `CN(C)C=CC(=O)c1cccc(Cl)c1`: the melting point was 68 to 70 °C.

In the case of `N#Cc1ccc(N(Cc2ccc(Br)cc2)n2cnnc2)cc1-c1ccc(OS(N)(=O)=O)cc1`, the melting point fell in the range of 122 to 123 °C.

The compound `CCc1c2c(c(CC)c3ccc(OC)cc13)-c1ccc(OC)cc1C2` had a melting point of 155 to 157 °C.

On to `O=Cc1ccc(OCCNc2nc3ccccc3o2)cc1`, for which the melting point was 103 to 106 °C.

`Cc1cc(N)c([N+](=O)[O-])cc1OC(F)F` yielded a melting point of 73 to 74 °C.

As for `CCOC(=O)C1=C(COCCNS(=O)(=O)NC(=O)c2ccco2)NC(C)=C(C(=O)OC)C1c1ccccc1Cl` (configuration not stated), the melting point came out at 138 °C.

As for `COc1ccc(-c2ccnc3c(C(=O)c4cccs4)cnn23)cc1NC(=O)OC(C)C`, the melting point was 193 to 195 °C.

The compound `CS(=O)(=O)NC(=O)CNC(=O)NCCCCC1CCSS1` (configuration not stated) showed a melting point of 157 to 158 °C.

With `O=C1CNC(=O)C(=Cc2cc3ccccc3s2)N1`, the melting point was 258 °C.

The compound `S=c1[nH]ccn1Cc1ccco1` yielded a melting point of 106 to 108 °C.

As for `C[C@H](NC(=O)[C@H](Cc1ccccc1)NC(=O)CS)C(=O)O`, the melting point was in the range of 172 to 174 °C.

The compound `CN(C)C=Nc1sc(C=O)c(S(=O)(=O)c2ccccc2)c1C#N` gave a melting point of 262 °C.

On to `COc1cc2c(cc1Nc1ncc(Cl)c(Nc3ccc(N4CCOCC4)cc3OC)n1)CCN(CC(=O)N1CCCC1)CC2`, for which the melting point was 82 to 105 °C.

For `Cc1cc(C)c2nc(C(=O)O)cc(-c3ccccc3Cl)c2c1`, the melting point was 234 to 235 °C.

The compound `CCCCCC12CCC(C(=O)O)(CC1)CC2` came in with a melting point of 160 °C.

The compound `Nc1ncc2c(n1)-c1sc(N)nc1CC2` had a melting point of 293 to 300 °C.

Consider `CC=Cc1ccccc1Oc1ccc(Oc2ccccc2C=CC)nn1`, for which the melting point lay in the range of 165 to 168 °C.

`Cc1cccc(N2CCN(CCc3c(C)nc4cc(C)ccn4c3=O)CC2)c1` came in with a melting point of 96 to 97 °C.

As for `CC(C)(C)c1cc(C(C)(C)C)n(Cc2ccc(CNc3ccc(CCC(=O)O)c(F)c3)cc2)n1`, the melting point lay within 146 to 147 °C.

The compound `Cc1cnc2c(Cl)nc3cc4ccccc4cc3n12` yielded a melting point of 221 to 223 °C.

`CCc1c2c(c(C)c(C)c1N1CCN(c3ccc(OC)cc3)CC1)OC(C)(C)C2` showed a melting point of 150 to 151 °C.

As to `CCOC(=O)c1c(N)sc(-c2ccc(OC)cc2)c1C`, the melting point was in the range of 79 to 80 °C.

Consider `CCCCc1ncc(/C=C(\Cc2ccc(OC)s2)C(=O)O)n1Cc1ccccc1Cl`, for which the melting point fell in the range of 184 to 186 °C.

Compound `N#Cc1c(N2CCCCC2)cc(-c2ccc3ccccc3c2)c2c1-c1ccccc1C2=O` had a melting point of 166 to 167 °C.

In turn, `COC(=O)CCCCCCCCOC1OC(CO)C(O)C(OC2OC(CO)C(O)C(O)C2OC2OC(C)C(O)C(O)C2O)C1NC(C)=O` (configuration not stated) gave a melting point of 195 °C.

The compound `CC(C)[C@H](NC(=O)OCc1ccccc1)C(=O)N[C@@H](C(C)C)[C@@H](O)c1c(-c2ccccc2)c1=O` had a melting point of 63 to 71 °C.

In turn, `O=C(Nc1cccc2cnccc12)NC1CC2(CCOCC2)Oc2ccccc21` (configuration not stated) displayed a melting point of 220 °C.

Turning to `CCCCCCCCCCCCCCCC(=O)N[C@@H](CSC(=O)CCCCCCCCCCCCCCC)C(=O)O`, the melting point fell in the range of 82 to 84 °C.

Compound `OC(c1cc(Cl)cc(Cl)c1)c1cc(Cl)cc(Cl)c1` displayed a melting point of 126 °C.

On to `OC(CCN1CCCC1)c1ccc(C2CCCCC2)c(Cl)c1` (configuration not stated), for which the melting point worked out at 90 °C.

As for `CC(C)(C)OC(=O)N(CCOc1cccc2[nH]cc(Cl)c12)Cc1ccccc1`, the melting point lay in the range of 106 to 108 °C.

Turning to `Cn1ncnc1COc1nn2c(-c3ccccc3F)nnc2cc1C1(C)CCOCC1`, the melting point is 191 °C.

Take `CCCCCCCCC1C(=O)NC(=O)N1CCCCCCC(=O)OCC` (configuration not stated): the melting point is 68 to 70 °C.

On to `O=S1(=O)N=CN(C2CC2)c2cc(I)ccc21`, for which the melting point fell in the range of 304 to 307 °C.

In turn, `Nc1ccccc1C(O)C1CC1` (configuration not stated) yielded a melting point of 76 to 79 °C.

Regarding `CC(=O)NC(=O)C(Cl)C(C)=O` (configuration not stated), the melting point lay within 54 to 58 °C.

Turning to `c1ccc(CN2CCc3c(sc4nc5ccccc5n34)C2)cc1`, the melting point lay in the range of 124 to 129 °C.

Take `CC(C)(C)c1ccc([C@@H]2C[C@H]3C=C(c4c[nH]c(-c5ccc(F)c(F)c5)c4-c4ccncc4)CCN3C2)cc1`: the melting point fell in the range of 218 to 220 °C.

`COC(=O)c1ccnc(-c2cccc3cc(Cc4cc(F)cc(Cl)c4)sc23)c1`: the melting point lay within 102 to 103 °C.

With `O=C1c2cccc(NC(=S)Nc3ccccn3)c2C2CC3(CCN12)SCCS3` (configuration not stated), the melting point is 142 °C.

In turn, `CCC(C)(C)N=C(NC#N)Nc1cc(Br)cc(Br)c1` showed a melting point of 168 to 170 °C.

For `CC(C)(C)OC(=O)Nc1ccc(Cl)nc1`, the melting point fell in the range of 126 to 127 °C.

With `CC(C)C(NS(=O)(=O)c1ccccc1)C(=O)NO` (configuration not stated), the melting point is 154 to 155 °C.

The compound `CCCc1c(OCCCOc2ccc(CC(=O)O)cc2)ccc(C(C)=O)c1O` had a melting point of 106 to 108 °C.

`Nc1cc2c(cc1Sc1ccccc1)CCC2` gave a melting point of 67 °C.

Compound `CCCCCCC(=O)N[C@H](CCC(=O)O)C(=O)O` gave a melting point of 92 to 96 °C.

Regarding `COC(=O)/C=C/c1cc2c(-c3ccccc3)c(CC(=O)Nc3ccc(F)cc3C(F)(F)F)c(=O)oc2cc1C`, the melting point fell in the range of 233 to 236 °C.

`COc1ccc(Nc2nc(N)nc3c2ncn3C2CC(F)C(CO)O2)cc1` (configuration not stated) came in with a melting point of 190 to 191 °C.

As a reminder, the melting point is the temperature of the solid-liquid transition.

The values are drawn from a melting point compilation (Tetko et al.; mined from patent text by program, amines drawn as free bases though some values may be those of a salt).
